Measurements from patent publication US20030022811A1, “Favorable modulation of health-related quality of life and health-related quality-adjusted time-to-progression of disease in patients with prostate cancer” (priority 2001, published 2003).
“Also recorded” adds a separate entry of the source.

How the values were obtained:
Format in all cases: in vivo, human
[1] = test system: patients having hormone refractory prostate cancer (HRPCa); experiment: Health-related quality-adjusted time-to-progression (QATTP), Kaplan-Meier product limit analysis; settings: for health-related QATTP, difference between the atrasentan treatment groups: 10 mg vs 2.5 mg
Method: The health-related QATTP model used for the practice of this invention expresses progression-free time as an equally preferable amount of time spent in full health. This is achieved by using patient-reported health-related QoL, as measured for the duration of observation or progression-free interval, to weight progression-free time. […] Patients received treatment with either 10 mg (N=89) or 2.5 mg (N=95) of atrasentan or placebo (N=104) until experiencing a clinical event indicative of disease progression as defined by palliative opiate treatment of new bone or visceral pain, palliative radiation treatment of new bone pain, or new tumor growth symptoms requiring intervention or treatment with chemotherapy. Patient-reported health-related QoL data were collected with the EORTC QLQ-30 and the FACT-G and FACT-P, both of which were administered at baseline, at six week intervals and at the patient's final visit. A patient's transformed domain score and total score from both the EORTC QLQ-30 and FACT were used to weight the time-to-progression outcome data. Transformed domain scores ranged between 0 and 1, so the reported health-related QATTP outcome was never larger than actual time to progression. Possible scores for the fourteen EORTC domains each range between […]. For six domains (physical, emotional, role, social, and cognitive functioning and global score), a higher score means a better health-related QoL. These six scores were transformed to weights by dividing the patient-reported scores by 100. For the remaining eight EORTC domains, a higher score indicates worse symptoms (a worse health-related QoL). These domains are pain, fatigue, nausea and vomiting, appetite loss, […], sleep disturbance, diarrhea, and constipation. These eight scores were converted to weight adjustments by dividing them by 100 and subtracting the result from the integer 1 to provide consistent directionality of response. […] Each patient's health-related QATTP was computed as the […] of the health-related QoL weights and the duration for which that patient experienced that health-related QoL. If a patient experienced a clinical event between two health-related QoL assessments, the set of health-related QoL domain scores immediately prior to the event were carried forward to the time of the clinical event. The mean and median health-related QATTP outcomes were then estimated using Kaplan-Meier product limit methodology (Journal of the American Statistical Association, vol.53, 1958, pp 457-481). The area under a Kaplan-Meier survival curve conveys an estimated mean health-related QATTP. This analysis was applied to both intent-to-treat (ITT) and per protocol population data. All health-related QATTP comparisons between atrasentan and placebo treatment groups were based on log-rang test statistical significance at an α of 0.05. Results of the Kaplan-Meier product limit survival method analysis are reported in Table 2 (Intent to Treat) and Table 3 (Per Protocol Population). Mean and median health-related QATTP are shown by treatment arm. Log-rank tests comparing the differences between treatment groups are also reported.

[2] = test system: patients having hormone refractory prostate cancer (HRPCa); experiment: Area under the Curve (AUC) analysis of health-related QoL domain scores, one year follow-up
From the text: The Kaplan-Meier product limit method can provide biased results if study data are obtained under certain conditions such as staggered entry of subjects into the study and/or incomplete follow-up (Biometrics. 1989; 5:781-795). Thus, a second study was implemented to verify that the conclusions derived from the Kaplan-Meier would remain robust to the length of follow-up. The assumption was that all patients were followed for one year. Patients who discontinued from the study prior to one year of observation had their last observation for all health-related QoL domains carried forward through the remainder of the year. Similarly, patients who had not completed one year of observation had their health-related QoL data carried forward through one year. If the patient experienced a clinical event within the one year period, the last observation was not carried forward. The Area under the Curve (AUC) value for each domain was computed by multiplying the health-related QoL domain score by the respective duration of that score. Finally, AUC values were aggregated across all subjects within each respective treatment group (atrasentan (10 mg), atrasentan (2.5 mg), and placebo). Aggregated AUC values for each domain were compared for differences between treatment groups using a t-test.

[3] = test system: patients having hormone refractory prostate cancer (HRPCa); experiment: Time to disease progression, PSA progression and markers of bone metabolism
Method: Patients received treatment with either 10 mg (N=89) or 2.5 mg (N=95) of atrasentan or placebo (N=104) until experiencing a clinical event indicative of disease progression as defined by palliative opiate treatment of new bone or visceral pain, palliative radiation treatment of new bone pain, or new tumor growth symptoms requiring intervention or treatment with chemotherapy.

[4] = At. 10 mg, adjusted by FACT Functional Well Being, Intent to Treat
[5] = At. 10 mg, adjusted by FACT Physical Well Being, Per Protocol
[6] = 10 mg and 2.5 mg, Per Protocol subjects

In the case of CCCCN(CCCC)C(=O)CN1C[C@H](c2ccc3c(c2)OCO3)[C@@H](C(=O)O)[C@@H]1c1ccc(OC)cc1 [atrasentan, (2R,3R,4S)-2-(4-methoxyphenyl)-4-(1,3-benzodioxol-5-yl)-1-(N,N-di(n-butyl)aminocarbonylmethyl)pyrrolidine-3-carboxylic], the “mean health-related QATTP vs placebo” value ([1]; 2.5 mg, per protocol) is reported as “longer”, the “log rank test of health-related QATTP vs placebo” value ([1]; 2.5 mg, per protocol, all QoL domains except dyspnea and functional well-being) is reported as “statistically significant” and the “mean and median health-related QATTP, atrasentan treatment groups vs placebo” value ([1]; 10 mg and 2.5 mg, intent-to-treat population) is reported as “no statistically significant differences”. For the same compound, the “health-related QATTP, difference between the atrasentan treatment groups” value ([1]; intent-to-treat population) was “no statistically significant differences”, the “health-related QATTP, difference between the atrasentan treatment groups” value ([1]; per protocol, any QoL domain) was “no statistical differences” and the “health-related QATTP trend vs placebo” value ([1]; 10 mg, per protocol, dyspnea, global score, emotional well-being, social well-being, p<0.10) was “trend favored”. The “weighted health-related QATTP vs placebo group” value ([1]; 10 mg, per protocol, p<0.05, all QoL domains except dyspnea, global score, emotional, social and functional well-being) was “significantly longer”, the “Health-Related QATTP Mean” value ([1]; At. 2.5 mg, adjusted by EORTC Cognitive Functioning, Intent to Treat) was 180 days and the “Health-Related QATTP Mean” value ([1]; At. 2.5 mg, adjusted by EORTC Cognitive Functioning, Per Protocol) was 190 days. For the same compound, the “Health-Related QATTP Mean” value ([1]; At. 2.5 mg, adjusted by EORTC Constipation, Intent to Treat) was 180 days, the “Health-Related QATTP Mean” value ([1]; At. 2.5 mg, adjusted by EORTC Constipation, Per Protocol) was 190 days and the “Health-Related QATTP Mean” value ([1]; At. 2.5 mg, adjusted by EORTC Dyspnea, Per Protocol) was 180 days. The “Health-Related QATTP Mean” value ([1]; At. 2.5 mg, adjusted by FACT Emotional Well Being, Intent to Treat) was 180 days, the “Health-Related QATTP Mean” value ([1]; At. 2.5 mg, adjusted by FACT Social/Family Well Being, Intent to Treat) was 160 days and the “Health-Related QATTP Mean” value ([1]; At. 2.5 mg, adjusted by FACT-G, Per Protocol) was 180 days. The “Health-Related QATTP Mean” value ([1]; At. 2.5 mg, adjusted by FACT-P, Per Protocol) was 160 days, the “Health-Related QATTP Mean” value ([1]; At. 10 mg, adjusted by EORTC Role Functioning, Intent to Treat) was 180 days and the “Health-Related QATTP Mean” value ([1]; At. 10 mg, adjusted by EORTC Social Functioning, Intent to Treat) was 190 days. For the same compound, the “Health-Related QATTP Mean” value [1, 4] was 140 days, the “Health-Related QATTP Median” value [1, 4] was 98 days and the “Health-Related QATTP Mean” value [1, 5] was 190 days. For the same compound, the “Health-Related QATTP Median” value [1, 5] was 130 days, the “Health-Related QATTP Mean” value ([1]; At. 10 mg, adjusted by FACT-G, Intent to Treat) was 160 days and the “Health-Related QATTP Median” value ([1]; At. 10 mg, adjusted by FACT-G, Per Protocol) was 130 days. For the same compound, the “health-related QATTP compared to placebo” value ([1]; both 10 mg and 2.5 mg arms, per protocol analysis) was “improved; also recorded: longer”, the “AUC results vs placebo group” value ([2]; 2.5 mg, all domains except dyspnea, social/family, functional well-being and FACT-P) was “significantly improved” and the “AUC of health-related QoL domain scores, atrasentan treatment vs placebo” value ([2]; Intent to Treat population) was “no statistical differences”. The “AUC of health-related QoL domain scores, 10 mg vs 2.5 mg groups” value ([2]; per-protocol population) was “not statistically differentiable”, the “AUC of health-related QoL domain scores, atrasentan treatment groups vs placebo” value ([2]; per-protocol population, every QoL domain score) was “strong trends in favor” and the “AUC for health-related QoL domain scores vs placebo” value ([2]; physical functioning, social functioning and pain domains) was “significantly (p<0.05) longer”. The “time to disease progression compared to placebo” value ([3]; 10 mg and 2.5 mg, Per Protocol analysis) was “delayed”, the “markers of bone metabolism” value [3, 6] was “attenuated increases” and the “time to prostate-specific antigen (PSA) progression” value [3, 6] was “delayed”. The “time to disease or PSA progression across treatment groups” value ([3]; intent-to-treat population) was “no statistically significant differences”.
